Source: patent US12275734B1, “Pleuromutilin onium salt derivative containing a 3H-imidazo[4,5-c]pyridine side chain, and a preparation method and application thereof” (SHAANXI UNIVERSITY OF SCIENCE AND TECHNOLOGY, priority 2024, dated 2025)

Legend:
[1] = tested on: MRSA (ATCC 33591); experiment: Bacterial cell morphology by FESEM; assay type: cell-based, S. aureus; conditions: 4 hours
Experimental: (§1) Observation of bacterial cell morphology using FESEM:
(§2) First, the bacterial suspension was adjusted to OD600=0.5, and then the bacteria were treated with compound i at a final concentration of 1×MIC and 4×MIC at 37° C. for 4 hours, and a control group without compound addition was set up. After treatment, the bacteria were collected by high-speed centrifugation at 6000 rpm for 10 minutes and washed three times with 10 mM PBS buffer to remove residual culture medium and drugs. Subsequently, the bacteria were fixed with 2.5% glutaraldehyde at 4° C. for 12 hours to maintain the integrity of the cell structure, and then washed again with PBS buffer three times to remove excess glutaraldehyde.
(§3) Next, the cells were subjected to a series of ethanol dehydration treatments (30%, 50%, 70%, 80%, 90% and 100% ethanol), and the treatment time of each concentration was sufficient to replace the intracellular water. After dehydration, the sample was resuspended in isoamyl acetate for 30 minutes and then centrifuged at 6000 rpm for 10 minutes to remove the supernatant. The sample was then dried and dotted on a stage with conductive glue, gold-plated to enhance the conductivity of the sample, and finally observed using a field emission scanning electron microscope (FESEM) to obtain high-resolution images of bacterial cell morphology and surface morphology. […]

[2] = tested on: E. coli (ATCC 25922); experiment: Biofilm formation, crystal violet staining; assay type: cell-based
Experimental: (§4) Quantification of biofilm using crystal violet staining:
(§5) MRSA and E. coli cells were first adjusted to the logarithmic growth phase and diluted to […]. […] A blank control group without compound addition was set up. After incubation, the suspension was discarded and washed three times with 10 mM PBS buffer, and the biofilm was fixed with methanol for 15 minutes. After removing the methanol, 200 μL of 0.1% crystal violet was added to each well for staining for 30 minutes, and then the crystal violet was discarded and washed again with PBS three times. After the well plate was dried, 200 μL of 95% ethanol was added to each well to dissolve the fixed dye. […] This process allows for quantitative analysis of the ability of different concentrations of compound i to form biofilms.

[3] = tested on: MRSA (ATCC 33591); experiment: Bacterial extracellular conductivity; assay type: cell-based, S. aureus; conditions: 1×MIC and 2×MIC, vs blank control
From the text: Changes in conductivity can reflect the permeability and integrity of the cell membrane. When the cell membrane is damaged or the permeability increases, the flow of ions inside and outside the cell will increase, resulting in an increase in conductivity. In the fields of biology and cell biology, conductivity measurements are often used to assess changes in cell membrane integrity.
MRSA and E. coli cells in the logarithmic growth phase were first resuspended after high-speed centrifugation and repeated PBS buffer washing and adjusted to the appropriate optical density. Next, different concentrations of compound i (1×MIC and 2×MIC) were added to the cell suspension, and a blank control group was set. All samples were incubated at 37° C. and sampled at set time points (0, 1, 2, 4, 6, and 8 hours). […] This series of operations helps to reveal the specific mechanism of action of compound i on bacterial growth and cell structure.

[4] = tested on: MRSA (ATCC 33591); experiment: Biofilm formation, crystal violet staining; assay type: cell-based, S. aureus
Experimental: as §4, §5

[5] = tested on: E. coli (ATCC 25922); experiment: Bacterial cell morphology by FESEM; assay type: cell-based; conditions: 4 hours
Experimental: as §1, §2, §3

[6] = tested on: MRSA (ATCC 33591); experiment: Cell membrane integrity, propidium iodide staining; assay type: cell-based, S. aureus
Experimental: The steps for dead cell staining using propidium iodide are as follows:
At the beginning of the experiment, samples were taken from MRSA and E. coli in the logarithmic growth phase, centrifuged at 8000 rpm for 5 minutes and washed twice with 0.85% NaCl solution to remove the culture medium and other possible interfering substances. Afterwards, the bacteria were resuspended in 0.85% NaCl solution and the concentration was adjusted to approximately 1×10^8 CFU/mL.
[…] After incubation, in order to mark and distinguish dead cells, 15 μM propidium iodide solution was added to each sample and incubated in the dark for 15 minutes. PI is a fluorescent dye that binds to DNA and can only penetrate into dead cells with damaged cell membranes.
Finally, the samples were observed using a fluorescence microscope or a confocal laser scanning microscope. By setting the appropriate fluorescence channel (excitation wavelength 535 nm, emission wavelength 617 nm), the red fluorescence emitted by dead cells can be detected. In this way, the effect of compound i on the lethality of bacterial cells can be intuitively evaluated and recorded, providing an experimental basis for further drug research.

[7] = tested on: Staphylococcus aureus (MRSA, ATCC 33591); experiment: Mouse MRSA systemic infection model, H&E tissue sections; assay type: in vivo; conditions: MRSA-infected mice
Experimental: Establishment of a mouse model of MRSA systemic infection
(2) Pretreatment: All mice received cyclophosphamide treatment, with the first intraperitoneal injection of 150 mg/kg cyclophosphamide 4 days before infection and the second intraperitoneal injection of 100 mg/kg cyclophosphamide 1 day before infection.
(4) Infection process: Mice were anesthetized with isoflurane and infected by intraperitoneal injection of Staphylococcus aureus (MRSA, ATCC 33591) at a concentration of 10^7 CFU/mL. […]
(2) Processing: • (a) Time point: At the first hour after infection, mice in the experimental group received intraperitoneal injection of 0.5 mL of compounds of different concentrations, while mice in the control group received the same volume of solvent. • (b) Treatment time: […]
Part II: The samples were fixed with 10% formalin buffer, then embedded in paraffin and sectioned. The sections were stained with hematoxylin and eosin (H&E) and then examined under an optical microscope.

[8] = tested on: MRSA (ATCC 33591); experiment: Bacterial intracellular pH (cFDA-SE); assay type: cell-based, S. aureus; conditions: control 6.57±0.10
Experimental: The definition of pHin is based on the ratio of the pH-sensitive wavelength (490 nm) to the pH-insensitive wavelength (440 nm).
First, prepare fluorescently labeled bacterial cells. MRSA and E. coli bacteria were removed from the culture in the logarithmic growth phase, and after high-speed centrifugation and washing with HEPES buffer, the bacteria were labeled with carboxyfluorescein succinimidyl ester (cFDA-SE), and the fluorescent dye was bound to the cells by incubation.
Next, PBS buffer was used to wash and remove the unbound fluorescent dye, and then the cells were suspended in the buffer and stored in a low-temperature environment. The second step was to determine the intracellular pH. The fluorescently labeled cell suspension was added to a test tube containing different concentrations of compound i and transferred to a black opaque 96-well plate for incubation. The fluorescence value was measured at specific excitation and emission wavelengths using a full-wavelength scanning multifunctional reader to calculate the intracellular pH. The last step is the calibration of the intracellular pH. The standard curve was determined using buffer solutions with different pH values to ensure accurate determination of the pH value inside the bacterial cells. […]

[9] = 5 mg/kg compound i, intraperitoneal

Compound: C=C[C@]1(C)C[C@@H](OC(=O)CSc2nc3cc[n+](Cc4ccc(C)cc4)cc3[nH]2)[C@]2(C)[C@H](C)CC[C@]3(CCC(=O)[C@H]32)[C@@H](C)[C@@H]1O [Compound i, 5-(4-methylbenzyl)-2-((2-(((3aR,4R,5R,7S,8S,9R,9aS,12R)-8-hydroxy-4,7,9,12-tetramethyl-3-oxo-7-vinyldecahydro-4,9a-propancyclopenta[8]cyclo-5-yl)oxy)-2-oxoethyl)thio)-3H-imidazo[4,5-C]pyridine-5-ium]
- bacterial cell morphology (FESEM) ([1]; 1×MIC): showed an irregular shape
- bacterial cell morphology (FESEM) ([1]; 4×MIC): obvious shrinkage or deformation
- inhibition rate of biofilm formation ([2]; 1×MIC): 60.47%
- inhibition rate of biofilm formation ([2]; 8×MIC): 94.54%
- extracellular conductivity [3]: increased
- inhibition rate of biofilm formation ([4]; 1×MIC): 51.33%
- inhibition rate of biofilm formation ([4]; 8×MIC): 86.68%
- bacterial cell morphology (FESEM) ([5]; 1×MIC): depressions on the bacterial surface were observed
- bacterial cell morphology (FESEM) ([5]; 4×MIC): obvious wrinkles and shrinkage on the bacterial surface
- cell membrane integrity, propidium iodide red fluorescence ([6]; 1×MIC): obvious red fluorescence was observed
- cell membrane integrity, propidium iodide red fluorescence ([6]; 2×MIC): red fluorescence was significantly enhanced
- kidney H&E histology [7, 9]: returned to a normal state
- lung H&E histology [7, 9]: no obvious pathological changes
- spleen H&E histology ([7]; 5 mg/kg, after 7 days of treatment): immune response was weakened
- intracellular pH after treatment ([8]; 1×MIC): 4.66±0.12
- intracellular pH after treatment ([8]; 2×MIC): 2.96±0.09
